From ChEMBL document CHEMBL1158738, “Constituents of the leaves and twigs of Calyptranthes pallens collected from an experimental plot in Southern Florida” (J Nat Prod, 2005) come the findings set out here.

In brackets after ≈: the same amount, converted by molar mass.

The subject of one data set is MCF7. As to the kind of experiment: Cytotoxicity against human MCF7 cells. Format: functional. The note with it: read-out: ED50 (the source's name).
The test system of the next data set is KB. Nature of the data set: Cytotoxicity against human KB cells. The note with it: read-out: ED50 (the source's name). Format: functional.
Data set [1] is described as follows: Cytotoxicity against HUVEC. Format: cell-based. The note with it: human, HUVEC cells; read-out: ED50 (the source's name).
For a further data set, the system named is Lu1. As to the kind of experiment: Cytotoxicity against human Lu1 cells. The format is functional. The conditions noted are these: read-out: ED50 (the source's name).
The test system of another data set is LNCaP. As to the kind of experiment: Cytotoxicity against human LNCAP cells. The format is functional. The note with it: read-out: ED50 (the source's name).
Data set [2] can be described thus: Cytotoxicity against human telomerase reverse transcriptase human RPE1 cells. Format: functional, TERT-RPE1. The note with it: RPE-1, read-out: ED50 (the source's name).

For `CC1=CC[C@]2(C(=O)O)CC[C@]3(C)[C@H](CC[C@@H]4[C@@]5(C)CC[C@H](O)C(C)(C)[C@@H]5CC[C@]43C)[C@H]2[C@@H]1C`, the EC50 with MCF7 was 9.7 µg/mL (≈ 21.2 µM); in the data set on KB, over 20 µg/mL; with Lu1 it was 12.9 µg/mL (≈ 28.2 µM); in the data set on LNCaP, 7.3 µg/mL (≈ 16 µM). In addition, in data set [1], the CC50 is 10.4 µg/mL (≈ 22.8 µM).

Take `COc1cc([C@@H]2c3cc(O)c(OC)cc3C[C@@H](C)[C@H]2C)ccc1O` [ISOGUAIACIN]: the EC50 with MCF7 was 12.4 µg/mL (≈ 37.8 µM); with KB, 6.4 µg/mL (≈ 19.5 µM); with Lu1, 15.7 µg/mL (≈ 47.8 µM); with LNCaP, 11.8 µg/mL (≈ 35.9 µM); in data set [2], over 20 µg/mL. For the same compound, in data set [1], the CC50 turned out to be 14.7 µg/mL (≈ 44.8 µM).

As to `CCCC(=O)c1c(O)c(C)c(OC)c(Cc2c(O)c(C(=O)CCC)c(O)c(C)c2OC)c1O`, the EC50 was 7.3 µg/mL (≈ 15.9 µM) in the data set with MCF7, 2.7 µg/mL (≈ 5.86 µM) with KB, 19.4 µg/mL (≈ 42.1 µM) in the data set on Lu1 and 6.6 µg/mL (≈ 14.3 µM) in the data set on LNCaP. Further, the CC50 in data set [1] is 6.1 µg/mL (≈ 13.2 µM).
